Measurements: PMC11237694, “Novel pentafluorosulfanyl-containing triclocarban analogs selectively kill Gram-positive bacteria” (Microbiology Spectrum, 2024)
≈ marks a conversion by molar mass, not a printed value. Where two headings read alike, the source gives them in different places.

Assays:
[1] = system: Klebsiella pneumoniae ATCC; assay: Planktonic susceptibility (MIC/MBC), 96-well broth microdilution; format: cell-based; conditions: K. pneumonia; for MIC: planktonic, overnight 37°C in MHB
Protocol: (§1) All bacterial strains subjected to testing had been stored at −70°C prior to the experiment. The experiment commenced by streaking small amounts of the frozen bacterial samples onto Muller-Hinton agar (MHA) culture medium (BD Bacto, Oxoid, Basingstoke, UK Cat# X296B) and allowing for overnight incubation. Bacteria were re-cultured on MHA plates as required to confirm colony morphology and lack of contamination. Strains tested were P. aeruginosa ATCC 27853, E. coli ATCC 25922, Staphylococcus aureus ATCC 25923, MRSA ATCC 33591, S. epidermidis ATCC 12228, Klebsiella pneumoniae ATCC, P. mirabilis ATCC 35659, and 10 clinical isolates of MRSA from Foothills Hospital, Calgary, Canada. To prepare for susceptibility testing, a protocol modified from Lemire et al was used ([28]). MHB was swab-inoculated from MHA colonies and shake-incubated until turbid. Dilution of the broth with 0.9% saline was performed as necessary to match a 1.0 McFarland standard.
(§2) MIC and MBC assessments were conducted on all bacterial strains using 96-well microtiter plates. To prepare the wells for bacteria, serial dilutions of the antibacterial agents were carried out along the rows of two microtiter plates. The antibacterials were 2-fold diluted with Mueller-Hinton broth (MHB) in each column, reaching a volume of 75 µL. The 1.0 McFarland standard was diluted 15-fold in MHB, and 75 µL of inoculum was added to the wells treated with antibacterials, resulting in a total volume of 150 µL. The microtiter plates were covered and then shake-incubated overnight at 150 rpm and 37°C. MIC was determined based on visible bacterial growth. In cases of antibacterial opacity or ambiguous results, streaking of well cultures on MHA, overnight incubation, and subsequent comparison with controls were performed. MBC was determined by transferring 3 µL of culture from all MIC microtiter plate wells to 147 µL of Mueller-Hinton broth in fresh plates. These plates were shake-incubated overnight at 150 rpm and 37°C, and bacterial growth was visually inspected.

[2] = system: P. mirabilis ATCC 35659; assay: as above; format: cell-based; conditions: Proteus mirabilis; for MBC: ATCC35659; for MIC: ATCC35659, planktonic, overnight 37°C in MHB
Protocol: as §1, §2

[3] = system: Staphylococcus aureus ATCC 25923; assay: as above; format: cell-based; conditions: S. aureus; for MBC / MIC: Staphylococcus aureus, ATCC25923; for MIC: planktonic, overnight 37°C in MHB
Protocol: as §1, §2

[4] = system: S. epidermidis ATCC 12228; assay: as above; format: cell-based, Staphylococcus epidermidis; conditions: for MBC / MIC: Staphylococcus epidermidis; for MBC: ATCC12228; for MIC: ATCC12228, planktonic, overnight 37°C in MHB
Protocol: as §1, §2

[5] = system: 10 clinical isolates of MRSA from Foothills Hospital, Calgary; assay: Planktonic susceptibility (MIC/MBC) of MRSA clinical isolates; format: cell-based, methicillin-resistant S. aureus; conditions: Staphylococcus aureus
Protocol: as §1
as §2, with “In cases of antibacterial opacity or ambiguous results, streaking of well cultures on MHA, overnight incubation, and subsequent comparison with controls were performed.” left out

[6] = system: HEL cells; assay: Eukaryotic cell toxicity, microscopy (MCC); format: cell-based, Human; conditions: minimum concentration causing microscopically detectable alteration of cell morphology; 4 days
Protocol: (§3) Five eukaryotic cell lines were used to determine the cytotoxicity of the compounds: human embryonic lung (HEL) fibroblast cells, human cervixcarinoma-derived HeLa cells, human T-cell leukemia-derived MT4 cells, MDCK cells, and African Green monkey kidney-derived VERO cells. Semi-confluent cell cultures in 96-well plates were exposed to serial dilutions of the compounds or to medium (= no compound control), then incubated at 37°C. Four days later, the cells were inspected by microscopy to determine the MCC, that is, compound concentration that causes a microscopically detectable alteration of normal cell morphology. Next, the MTS cell viability reagent (CellTiter 96 AQueous MTS Reagent from Promega) was added. After 4 hours of incubation at 37°C, OD at 490 nm was recorded in a microplate reader.

[7] = system: HeLa cells; assay: Eukaryotic cell toxicity, microscopy (MCC); format: cell-based, Human; conditions: minimum concentration causing microscopically detectable alteration of cell morphology; 4 days
Protocol: as §3

[8] = system: MT4 cells; assay: Eukaryotic cell toxicity; format: cell-based, Human; conditions: 4 days
Protocol: as §3

[9] = Eukaryotic cell toxicity, MTS assay (CC50); format: cell-based, canine; conditions: dog, MDCK cells, MTS assay, 4 days; mean of 2 or 3 determinations; read-out: MDCK (CC50) in vitro cytotoxicity
Protocol: as §3

[10] = Eukaryotic cell toxicity, MTS assay (CC50); format: cell-based; conditions: African green monkey, Vero cells, mean of 2 or 3 determinations, read-out: Vero (CC50) in vitro cytotoxicity
Protocol: as §3

Compound	MBC [1]	MIC [1]	MBC [2]	MIC [2]	antibacterial efficacy (in words) [3]	MBC [3]	MIC [3]	antibacterial efficacy (in words) [4]	MBC [4]	MIC [4]	MBC ([5]; MRSA #1 clinical isolate)	MIC ([5]; MRSA #1 clinical isolate)	MBC ([5]; MRSA #2 clinical isolate)	MIC ([5]; MRSA #2 clinical isolate)	MBC ([5]; MRSA #3 clinical isolate)	MIC ([5]; MRSA #3 clinical isolate)	MBC ([5]; MRSA #4 clinical isolate)	MIC ([5]; MRSA #4 clinical isolate)	MBC ([5]; MRSA #5 clinical isolate)	MIC ([5]; MRSA #5 clinical isolate)	also measured
O=C(Nc1ccc(S(F)(F)(F)(F)F)cc1)Nc1ccc(Cl)c(Cl)c1 [EBP-59]	> 5000 µM	> 5000 µM	2 µM (≈ 0.814 µg/mL)	2 µM (≈ 0.814 µg/mL)	effective	6.1 µM (≈ 2.48 µg/mL)	< 0.3 µM	effective	10 µM (≈ 4.07 µg/mL)	4 µM (≈ 1.63 µg/mL)	5 µM (≈ 2.04 µg/mL)	< 2 µM	< 2 µM	< 2 µM	< 2 µM	< 2 µM	5 µM (≈ 2.04 µg/mL)	< 2 µM	10 µM (≈ 4.07 µg/mL)	< 2 µM	MBC ([5]; MRSA #6 clinical isolate): < 2 µM; MIC ([5]; MRSA #6 clinical isolate): < 2 µM; MBC ([5]; MRSA #7 clinical isolate): < 2 µM; MIC ([5]; MRSA #7 clinical isolate): < 2 µM; MBC ([5]; MRSA #8 clinical isolate): 5 µM (≈ 2.04 µg/mL); MIC ([5]; MRSA #8 clinical isolate): < 2 µM; MBC ([5]; MRSA #9 clinical isolate): 20 µM (≈ 8.14 µg/mL); MIC ([5]; MRSA #9 clinical isolate): < 2 µM; MBC ([5]; MRSA #10 clinical isolate): 40 µM (≈ 16.3 µg/mL); MIC ([5]; MRSA #10 clinical isolate): < 2 µM; HEL (MCC) in vitro cytotoxicity [6]: >4 µM; HeLa (MCC) in vitro cytotoxicity [7]: 4 µM; MT4 (MCC) in vitro cytotoxicity [8]: 3.9 µM; CC50 at 4 days [9]: ≥ 100 µM; CC50 at 4 days [10]: > 4 µM
O=C(Nc1ccc(Cl)cc1)Nc1cccc(S(F)(F)(F)(F)F)c1 [EBP-62, 1-(4-chlorophenyl)-3-(3-(pentafluoro-λ^6-sulfanyl)phenyl)urea]	> 5000 µM	> 5000 µM	> 5000 µM	> 5000 µM	effective	300 µM (≈ 112 µg/mL)	0.3 µM (≈ 0.112 µg/mL)	effective	100 µM (≈ 37.3 µg/mL)	20 µM (≈ 7.45 µg/mL)	80 µM (≈ 29.8 µg/mL)	< 2 µM	5 µM (≈ 1.86 µg/mL)	< 2 µM	< 2 µM	< 2 µM	20 µM (≈ 7.45 µg/mL)	< 2 µM	20 µM (≈ 7.45 µg/mL)	< 2 µM	MBC ([5]; MRSA #6 clinical isolate): 5 µM (≈ 1.86 µg/mL); MIC ([5]; MRSA #6 clinical isolate): < 2 µM; MBC ([5]; MRSA #7 clinical isolate): 10 µM (≈ 3.73 µg/mL); MIC ([5]; MRSA #7 clinical isolate): 5 µM (≈ 1.86 µg/mL); MBC ([5]; MRSA #8 clinical isolate): 80 µM (≈ 29.8 µg/mL); MIC ([5]; MRSA #8 clinical isolate): 5 µM (≈ 1.86 µg/mL); MBC ([5]; MRSA #9 clinical isolate): 40 µM (≈ 14.9 µg/mL); MIC ([5]; MRSA #9 clinical isolate): < 2 µM; MBC ([5]; MRSA #10 clinical isolate): 80 µM (≈ 29.8 µg/mL); MIC ([5]; MRSA #10 clinical isolate): 5 µM (≈ 1.86 µg/mL); HEL (MCC) in vitro cytotoxicity [6]: 20 µM; HeLa (MCC) in vitro cytotoxicity [7]: >4 µM; MT4 (MCC) in vitro cytotoxicity [8]: 4.7 µM; CC50 at 4 days [9]: 100 µM; CC50 at 4 days [10]: > 4 µM
O=C(Nc1ccc(Cl)cc1)Nc1ccc(S(F)(F)(F)(F)F)cc1 [EPB-61, 1-(4-Chlorophenyl)-3-(4-(pentafluoro-λ^6-sulfanyl)phenyl)urea]	> 5000 µM	> 5000 µM	> 5000 µM	> 5000 µM	effective	95 µM (≈ 35.4 µg/mL)	9.5 µM (≈ 3.54 µg/mL)	effective	40 µM (≈ 14.9 µg/mL)	1 µM (≈ 0.373 µg/mL)	40 µM (≈ 14.9 µg/mL)	< 2 µM	10 µM (≈ 3.73 µg/mL)	< 2 µM	10 µM (≈ 3.73 µg/mL)	< 2 µM	20 µM (≈ 7.45 µg/mL)	< 2 µM	40 µM (≈ 14.9 µg/mL)	< 2 µM	MBC ([5]; MRSA #6 clinical isolate): 20 µM (≈ 7.45 µg/mL); MIC ([5]; MRSA #6 clinical isolate): < 2 µM; MBC ([5]; MRSA #7 clinical isolate): 20 µM (≈ 7.45 µg/mL); MIC ([5]; MRSA #7 clinical isolate): < 2 µM; MBC ([5]; MRSA #8 clinical isolate): 40 µM (≈ 14.9 µg/mL); MIC ([5]; MRSA #8 clinical isolate): < 2 µM; MBC ([5]; MRSA #9 clinical isolate): 40 µM (≈ 14.9 µg/mL); MIC ([5]; MRSA #9 clinical isolate): < 2 µM; MBC ([5]; MRSA #10 clinical isolate): 20 µM (≈ 7.45 µg/mL); MIC ([5]; MRSA #10 clinical isolate): < 2 µM; HEL (MCC) in vitro cytotoxicity [6]: >4 µM; HeLa (MCC) in vitro cytotoxicity [7]: 4 µM; MT4 (MCC) in vitro cytotoxicity [8]: 2.8 µM; CC50 at 4 days [9]: ≥ 100 µM; CC50 at 4 days [10]: > 4 µM
